Here are results for one molecule from patent publication US20130108702A1, “COPPER/SILICA NANOPARTICLES, METHODS OF MAKING, AND METHODS OF USE” (priority 2011, published 2013).

For one assay, the system named is E. coli. The class given is cell-based, Escherichia coli (ATCC 35218). The settings on record: ppm of silver, organism not given. The protocol: (§1) Antibacterial properties of C—S CuSiNP and AgSiNG materials were evaluated against a gram positive Bacillus subtilis (B. subtilis, ATCC 9372) and a gram negative Escherichia coli (E. coli, ATCC 35218) organism. For all antibacterial assays, bacterial concentration of 10^5 cells/mL was considered. Copper sulfate with same metallic copper concentration was used as positive controls and silica nanoparticle (without Cu loading) was used as negative control.
(§2) Two sets of different concentrations of C—S CuSiNP were made in LB broth (0.49, 1.2, 2.4, 4.9, 7.2 and 9.8 ppm copper concentration) to a final volume of 10 mL. 250 μL (10^5 cells/mL) of E. coli and B. subtilis were added to set 1 and 2 respectively. Silica nanoparticle was used as negative control and copper sulfate with equivalent amount of copper was used as positive control. […]
(§3) The growth inhibitory effects of C—S CuSiNP and AgSiNG against E. coli and B. subtilis were studied in liquid media (FIG. 2.3 and FIG. 2.4). Bacterial growth with different concentrations of C—S CuSiNP and AgSiNG (0.49 to 9.8 μg mL^−1) was monitored after 24 hours of incubation at 37° C. by measuring the optical density at 600 nm using Teysche800 spectrophotometer. Since the turbidity of silica based material can interfere with the optical density reading, the background measurement was subtracted to calculate the final reading.

In a further assay the test system is B. subtilis. Type of assay: cell-based, Bacillus subtilis (ATCC 9372). The settings on record: ppm of silver, organism not given. The protocol: as §1, §2, §3

Turning to `O=[N+]([O-])[O-].[Ag+]` [silver nitrate], the “silver concentration at which growth inhibition can be seen” value in the assay on E. coli and in the assay with B. subtilis was 2.4 ppm each time.
